Test results published in patent US7482344B2, “Tricyclic steroid hormone nuclear receptor modulators” (Eli Lilly and Company, priority 2003, dated 2009).

Legend:
[1] = molecular target: T1, glucocorticoid receptor (Homo sapiens, UniProt P04150); assay: Glucocorticoid Receptor Binding Assay (Method 1), [3H]-dexamethasone competition in A549 cell extract; details: 1.86 nM [3H]-dexamethasone, read-out: GR Ki (nM) Method 1
T1 construct: host or cells: A549 human lung epithelial cells
T1 sequence (P04150 1-777): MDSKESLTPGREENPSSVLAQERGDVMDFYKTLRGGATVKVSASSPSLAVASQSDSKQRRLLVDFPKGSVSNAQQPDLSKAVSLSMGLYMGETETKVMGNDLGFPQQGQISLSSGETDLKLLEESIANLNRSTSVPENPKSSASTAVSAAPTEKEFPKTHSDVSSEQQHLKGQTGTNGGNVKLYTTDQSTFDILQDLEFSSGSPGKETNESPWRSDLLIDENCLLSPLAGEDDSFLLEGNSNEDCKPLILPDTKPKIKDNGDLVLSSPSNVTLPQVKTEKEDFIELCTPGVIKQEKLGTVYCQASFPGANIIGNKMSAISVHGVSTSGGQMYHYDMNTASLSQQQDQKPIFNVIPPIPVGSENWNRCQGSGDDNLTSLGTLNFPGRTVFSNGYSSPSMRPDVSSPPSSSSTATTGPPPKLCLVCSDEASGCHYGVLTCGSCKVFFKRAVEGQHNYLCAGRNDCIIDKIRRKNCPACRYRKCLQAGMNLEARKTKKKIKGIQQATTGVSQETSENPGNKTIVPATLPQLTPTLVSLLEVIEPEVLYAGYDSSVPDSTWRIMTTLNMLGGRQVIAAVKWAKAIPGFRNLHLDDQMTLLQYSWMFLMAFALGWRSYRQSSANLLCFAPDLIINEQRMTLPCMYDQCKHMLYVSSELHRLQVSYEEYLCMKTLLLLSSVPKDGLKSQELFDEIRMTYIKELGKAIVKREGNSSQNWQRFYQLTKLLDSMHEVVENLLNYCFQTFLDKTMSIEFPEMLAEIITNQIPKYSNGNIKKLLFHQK
Experimental: Glucocorticoid Receptor Binding Assay (Method 1):
A549 human lung epithelial cells (ATCC) are grown at a scale where gram quantity cell pellets are obtained. Harvested cell pellets are washed twice in cold phosphate buffered saline, centrifuged, and resuspended in cold assay binding buffer. The assay binding buffer consists of 10% glycerol, 50 mM Tris-HCl (pH7.2), 75 mM sodium chloride, 1.5 mM magnesium chloride, 1.5 mM EDTA, and 10 mM sodium molybdate. Cell suspensions were lysed via sonication, centrifuged, and the “extract” supernatant is snap frozen and stored at −80 C. until needed.
GR binding assays are performed in a final volume of 140 ul containing 50-200 ug of A549 cell extract and 1.86 nM [^3H]-dexamethasone (Amersham) plus varying concentrations of test compound or vehicle. Briefly, assays are prepared at RT in 96-well Fisher 3356 plates, each well containing 100 ul of A549 cell extract, 20 ul of [^3H]-dexamethasone, and 20 ul of test compound/vehicle. Incubations are carried out at 4 degrees Celsius for 16 hours. After incubation, 70 ul of 3× dextran-coated charcoal solution is added to each reaction, mixed, and incubated for 8 minutes at RT. 3×-dextran-coated charcoal solution consists of 250 ml assay binding buffer, 3.75 g Norit A charcoal (Sigma), and 1.25 g dextran T-70 (Amersham). Charcoal/unbound radioligand complexes are removed by centrifugation of the plate and 140 ul of supernatant from each well is transferred to another 96 well Optiplate (Packard Instruments). 200 ul of Microscint-20 scinillant (Packard Instruments) is added to each well and amount of receptor bound radioligand is determined using Packard Instruments TopCount instrument.

[2] = molecular target: T2, MR (Homo sapiens, UniProt P08235); assay: Mineralocorticoid Receptor Binding Assay (Method 1), [3H]-aldosterone competition; design: The full length human MR gene is cloned from a human kidney or human brain cDNA library; made in house; host or cells: SF9 insect cells (pAcHLT baculovirus transfer vector); details: human MR expressed in Sf9 cells, 0.5 nM [3H]-aldosterone
T2 sequence (P08235 1-984): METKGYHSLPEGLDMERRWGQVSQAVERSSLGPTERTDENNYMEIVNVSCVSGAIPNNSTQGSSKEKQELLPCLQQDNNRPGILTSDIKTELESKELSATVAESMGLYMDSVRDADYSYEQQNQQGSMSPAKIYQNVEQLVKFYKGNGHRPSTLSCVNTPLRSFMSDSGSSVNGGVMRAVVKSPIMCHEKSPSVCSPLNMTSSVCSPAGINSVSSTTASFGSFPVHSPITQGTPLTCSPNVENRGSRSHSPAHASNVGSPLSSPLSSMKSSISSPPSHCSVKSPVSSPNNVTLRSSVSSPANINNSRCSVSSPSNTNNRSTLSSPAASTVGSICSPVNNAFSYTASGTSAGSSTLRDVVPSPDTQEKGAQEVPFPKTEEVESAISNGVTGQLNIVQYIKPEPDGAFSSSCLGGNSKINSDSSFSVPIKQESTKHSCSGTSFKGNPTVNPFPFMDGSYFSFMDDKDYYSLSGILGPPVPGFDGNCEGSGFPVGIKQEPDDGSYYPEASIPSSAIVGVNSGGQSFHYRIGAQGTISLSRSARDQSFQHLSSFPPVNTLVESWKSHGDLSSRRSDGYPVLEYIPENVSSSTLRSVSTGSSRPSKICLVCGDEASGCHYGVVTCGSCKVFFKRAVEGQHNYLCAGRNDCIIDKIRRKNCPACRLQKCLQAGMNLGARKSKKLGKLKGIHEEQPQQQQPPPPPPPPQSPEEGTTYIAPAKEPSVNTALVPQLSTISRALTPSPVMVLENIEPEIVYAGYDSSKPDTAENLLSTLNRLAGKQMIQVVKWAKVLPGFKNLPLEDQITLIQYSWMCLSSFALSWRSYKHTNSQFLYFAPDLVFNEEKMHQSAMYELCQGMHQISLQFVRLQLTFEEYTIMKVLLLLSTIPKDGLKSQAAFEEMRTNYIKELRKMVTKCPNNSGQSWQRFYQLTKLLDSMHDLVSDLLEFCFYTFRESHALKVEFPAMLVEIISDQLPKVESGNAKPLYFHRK
Experimental: Mineralocorticoid Receptor Binding Assay (Method 1):
The full length human MR gene is cloned from a human kidney or human brain cDNA library. Briefly, using synthetic oligonucleotide primers (Eli Lilly and Company, Indianapolis) directed to nucleotides 20-54 and 3700-3666 of the human MR, polymerase chain reaction (PCR) is performed under standard conditions using a human cDNA library. The PCR reaction is performed in a final volume of 50 μl containing about 1μl of a 50× stock solution of polymerase; about 1 μl of a 50× stock solution of dNTP; about 5μl of an appropriate PCR buffer; about 1 μl of each primer; about 5 μl of a H. kidney or H. brain cDNA library; and about 36 μl of water. The reaction is allowed to denature for about 30 seconds at 95 degrees Celsius, anneal for about 30 seconds at 55 degrees Celsius, and extend for about 5 minutes at 72 degrees Celsius, the sequence being repeated for a total of about 35 cycles. The desired PCR product (3.68 Kb) is confirmed by gel electrophoresis and subsequently cut from the gel and stored at about −20 degrees Celsius until extraction. To extract the cDNA product from the agarose gel, the QIAEX II Gel Extraction protocol (QIAGEN, Inc.) is employed according to the manufacturer's instructions. Following extraction, the MR cDNA is cloned into an appropriate cloning vector (Zero Blunt TOPO PCR Cloning Kit (Invitrogen, Inc.) and a pAcHLT-baculovirus transfer vector (B.D./Pharminogen), then expressed in SF9 insect cells, essentially according to manufacturer's instructions. Sf9 cells are grown at a scale where gram quantity cell pellets are obtained for subsequent use in the MR binding assay. Harvested cell pellets are lysed by repeated freeze-thaw cycles (about 4) in a suitable lysis buffer then centrifuged at about 1×10^3G (with the supernatant being saved for future assays).
MR binding assays are performed in a final total volume of about 250 μl containing about 20-25 μg of protein and 0.5 nM of [^3H]-aldosterone plus varying concentrations of test compound or vehicle. The assay binding buffer consists of 30 mM sodium molybdate, 30 mM of TRIS-HCl, 5 mM sodium phosphate, 5 mM sodium pyrophosphate, and about 10% glycerol, pH=7.5.
Briefly, assays are prepared at RT in 96-well Falcon 3072 plates, each well containing 210 μof binding buffer, 10 μl of […], 10 μl of test compound/vehicle, and 20 μl of the resuspended receptor protein extract. Incubations are carried out at 4 degrees Celsius with shaking for about 16 hours. 200 μl aliquots of each incubation are filtered onto Millipore HA 0.45 micron 96-well filter plates, pre-moistened with cold 30 mM TRIS-HCl. The filter plates are suctioned dry with vacuum and immediately washed 3× with cold 30 mM TRIS-HCl. The plates are then punched out and the amount of receptor-ligand complex is determined by liquid scintillation counting using 4 ml of Ready Protein Plus™ liquid scintillation cocktail.

[3] = molecular target: T2, MR; design: host or cells: patients with advanced CHF; details: in combination with standard CHF therapy, patients suffering from advanced CHF; cited from earlier work

Row | Ki [1] [nM] | melting point [°C] | Ki [2] [nM] | Compound | reduced cardiac related mortality [3] [%] | reduced frequency of hospitalization [3] [%]
1 | < 10000 | 195.8 | < 500 | Oc1cccc(C=C2c3ccccc3Cc3ccccc32)c1 [Example 19, 3-(10H-Anthracen-9-ylidenemethyl)-phenol] |  | 
2 |  |  | < 500 | CC(C)n1c(=O)[nH]c2cc(C=C3c4ccccc4Sc4ccccc43)ccc21 [Example 16] |  | 
3 | < 1000 |  | < 500 | CS(=O)(=O)Nc1cccc(C=C2c3ccccc3Oc3ccccc32)c1 [Example 20, N-(3-Xanthen-9-ylidenemethyl-phenyl)-methanesulfonamide] |  | 
4 |  |  | < 500 | O=c1[nH]c2cc(C=C3c4ccccc4Sc4ccccc43)ccc2n1-c1cccnc1 [Example 17] |  | 
5 | < 10000 |  | < 500 | COc1cccc(C=C2c3ccccc3Cc3ccccc32)c1 [Example 18, 9-(3-Methoxy-benzylidene)-9,10-dihydro-anthracene] |  | 
6 |  |  |  | CC(=O)S[C@@H]1CC2=CC(=O)CC[C@]2(C)[C@H]2CC[C@@]3(C)[C@@H](CC[C@@]34CCC(=O)O4)[C@H]12 [spironolactone] | 30 | 35
